Values joined by “and” are separate entries in the source; they are usually repeats but may differ in a detail not shown here. Equal values may be shown once. Read-outs that look alike come from different tables or passages of the source. Marks after values point to notes of the source that are not given here.
Experiments:
[1] = test system: hyperlipidemic patients; experiment: Clinical study: effect of the hypolipidemic agent on elevated triglyceride levels in blood; assay type: in vivo, human
Procedure: Effect (in vivo) of the Hypolipidemic Agent on Elevated Triglyceride Levels in Blood-Clinical Study Patients attending the Endocrinology and Metabolism outpatient department of […] Medical College Hospital were included in the study. Patients with baseline serum total cholesterol above 200 mg/dl and/or serum triglycerides above 200 mg/dl after 6-12 weeks of low fat diet, exercise and weight reduction program, were included in the study. The compliance of the subjects for diet, weight and exercise schedules were monitored throughout the study. The number of patients recruited for the study were 37, including a child. There were […] in the age group of 30 to 62 years. Of the 37 patients, 23 patients were diabetic (type two diabetes) and 16 patients had essential hypertension, and two women and nine men were obese, the others being of normal weight. Two men and one person dropped out of the study, due to unknown causes. Of the original patients, 34 completed the study as per the protocol. In the initial visit, patient's height in centimeters, and weight in kilograms were recorded. After noting detailed history, physical examinations were performed on each patient. Informed consent was taken from all patients and, in the case of minors, from their parents. Blood samples were drawn for routine hematology, fasting and post prandial plasma glucose, blood urea, serum creatinine, liver function test and lipid profile. At each visit, the patient's weight and diet and exercise compliance was checked and blood samples for hematology and lipid profile were drawn. The patients were given 20 mg of Vanillin in gelatin capsule once a day before the main meal. At each visit, pill count was done to check the compliance of the drug intake. The data were recorded in the case record form and computer by authorized persons. The data were analyzed statistically.

[2] = test system: hyperlipidemic rats; experiment: Dose response spectrum of the hypolipidemic agent, animal assay on hyperlipidemic diet; assay type: in vivo, Wistar male rats; design: Serum triglycerides, TOTAL / Serum triglycerides, LDL-VLDL / Serum triglycerides, HDL: unit not given here; conditions: six weeks; for Hypocholesterolemic effect, lowering: mainly LDL-VLDL fraction
From the text: Dose Response Spectrum of the Hypolipidemic Agent—Animal Assay: The response in terms of the lowering of triglyceride component in the majority of the human cases were encouraging. This initiated a dose response test in young adult rats to determine a standard response curve. Such a curve would help in choosing the proper doses for further clinical trials and determine the adequacy and nature of the response. The tests were done on groups of young Wistar male rats, statistically distributed on the basis of body weight (125±5 g) into six groups, including a control group. […] The basal hyperlipidemic diet contained (g/100): casein 15, corn starch 40, cane sugar 10, hydrogenated fat 25, refined peanut oil 5, NRC vitamin mixture (choline free) 1, and salt mixture (Bernhardt-Tomarrelli modified) 4. Fat soluble vitamins at desired concentrations were added to the peanut oil. Vanillin was incorporated into the hyperlipidemic diet in replacement of starch at the desired levels. The duration of the test feeding period was six weeks. At the end of the experimental period, the rats were sacrificed and lipid analysis was done using standard procedures.

[3] = test system: rats; conditions: cited from earlier work
[4] = test system: rats; conditions: cited from earlier work; remark: listed apart in the source
[5] = man; cited from earlier work
[6] = test system: guinea pigs; conditions: guinea pig, in vivo; cited from earlier work
[7] = test system: rabbits; conditions: rabbit, in vivo; cited from earlier work
[8] = 20 mg/day oral, throughout the study
[9] = mean of 10 patients, baseline mean 425.2, p < 0.0005 vs TG1, 20 mg/day

With COc1cc(C=O)ccc1O [Vanillin, 4-hydroxy-3-methoxybenzaldehyde] the “Change in serum HDL level” value ([1]; 20 mg/day) was “no significant change”, the “Adverse effects in patients” value [1, 8] was “No adverse effects” and the “Routine biochemistry, hematology and liver function tests” value [1, 8] was “did not show any significant change”. The “DELTA = (TG1 − TG3)” value ([1]; individual patient, before treatment minus 6 weeks after treatment, 20 mg/day) was 243 mg/dL and 199 mg/dL and 218 mg/dL and 120 mg/dL and 168 mg/dL and 236 mg/dL and 133 mg/dL and 250 mg/dL and 158 mg/dL and 224 mg/dL, the “(DELTA/TG1) ×100” value ([1]; individual patient, reduction of serum triglyceride at 6 weeks, 20 mg/day) was 41.68% and 52.15% and 53.96% and 42.25% and 30.65% and 49.58% and 43.18% and 58.14% and 47.02% and 44.44% and the “DELTA = (TG1 − TG3), mean” value ([1]; mean of 10 patients, 20 mg/day) was 194.9 mg/dL. The “(DELTA/TG1) ×100, mean” value ([1]; mean of 10 patients, 6 weeks, 20 mg/day) was 46.34%, the “TG2: fasting serum triglyceride level 3 weeks after treatment, mean” value [1, 9] was 306.0** mg/dl and the “TG3: fasting serum triglyceride level 6 weeks after treatment, mean” value [1, 9] was 230.3 mg/dL. The “Change from baseline total cholesterol, mean” value ([1]; mean, 20 mg/day) was 74.5 mg/dL, the “Reduction of serum triglyceride” value ([1]; patient, about six weeks, 20 mg/day) was “up to 75%” and the “Serum triglyceride after treatment” value ([1]; patient, initial value 3078 mg/dl, about six weeks, 20 mg/day) was 786 mg/dL. For the same compound, the Liver total lipids ([2]; 0.125% and 0.25% in diet) was “significantly higher”, the “Triglycerides in the liver” value ([2]; 0.125% and 0.25% in diet) was “higher accumulation” and the “Decrease in HDL cholesterol” value ([2]; 0.125% in diet) was 16%. The “Hypocholesterolemic effect, lowering” value ([2]; 0.125% in diet) was 18%, the “Serum triglycerides, HDL” value ([2]; 0.125% in hyperlipidemic diet) was 69.3 ± 7.0 and the “Serum triglycerides, LDL-VLDL” value ([2]; 0.125% in hyperlipidemic diet) was 128.3 ± 4.1. The “Serum triglycerides, TOTAL” value ([2]; 0.125% in hyperlipidemic diet) was 197.6 ± 9.74, the “Hypocholesterolemic effect, lowering” value ([2]; 0.25% in diet) was 12% and the “Serum triglycerides, HDL” value ([2]; 0.25% in hyperlipidemic diet) was 74.3 ± 10.4. For the same compound, the “Serum triglycerides, LDL-VLDL” value ([2]; 0.25% in hyperlipidemic diet) was 147.1 ± 6.5, the “Serum triglycerides, TOTAL” value ([2]; 0.25% in hyperlipidemic diet) was 221.4 ± 16.5 and the “Decrease in serum phospholipids” value ([2]; 0.5% in diet) was 19%. For the same compound, the “Serum triglycerides, HDL” value ([2]; 0.5% in hyperlipidemic diet) was 29.8 ± 6.5, the “Serum triglycerides, LDL-VLDL” value ([2]; 0.5% in hyperlipidemic diet) was 127.0 ± 4.3 and the “Serum triglycerides, TOTAL” value ([2]; 0.5% in hyperlipidemic diet) was 156.8 ± 10.4. For the same compound, the Adipose fat ([2]; 1% and 5% levels in diet) was “lowered”, the “Decrease in serum phospholipids” value ([2]; 1.0% in diet) was 14% and the “Serum triglycerides, HDL” value ([2]; 1.0% in hyperlipidemic diet) was 41.7 ± 5.5. For the same compound, the “Serum triglycerides, LDL-VLDL” value ([2]; 1.0% in hyperlipidemic diet) was 104.8 ± 4.9, the “Serum triglycerides, TOTAL” value ([2]; 1.0% in hyperlipidemic diet) was 146.5 ± 9.33 and the “Serum triglycerides, HDL” value ([2]; 5.0% in hyperlipidemic diet) was 38.6 ± 4.8. For the same compound, the “Serum triglycerides, LDL-VLDL” value ([2]; 5.0% in hyperlipidemic diet) was 141.8 ± 10.3, the “Serum triglycerides, TOTAL” value ([2]; 5.0% in hyperlipidemic diet) was 180.4 ± 3.69 and the Liver weights ([2]; any of the levels tested (0.125-5% in diet)) was “not affected”. The “Reduction in serum triglycerides” value ([3]; 0.15 mg % vanillin) was 24%, the “Body and organ weights, hematology, and histopathology, test versus control rats” value ([4]; 1.0% of diet 16 weeks, 0.1% 27 to 28 weeks, 2.0% and 5.0% one year, 0.5%, 1.0% and 2.0% two years) was “no significant differences” and the Adverse effects ([4]; rats, 5% diet for 90 days (earlier study)) was “growth depression and organ enlargement”. The “Daily intake equal to the highest level without adverse effect” value ([4]; rats, 5% in diet) was about 2500 mg/kg, the “Highest level consumed without adverse effect” value ([4]; rats, level in diet) was 5% and the Adverse effects ([4]; rats, oral, once a day 20 mg/kg/d for 126 days) was “no adverse effects”. The Adverse effects ([4]; rats, oral, twice per week 300 mg/kg/dose for 14 weeks) was “no adverse effects”, the “Highest no-adverse-effect intake relative to estimated per capita daily intake” value ([4]; versus a 60-kg person) was ~14,000 times and the Metabolism and excretion [5] was “converted to vanillic acid in the liver and is excreted in the urine”. The “Acute oral LD50” value [6] was 1400 mg/kg and the “Acute oral LD50” value [7] was 3000 mg/kg.

For COc1cc(CNC(=O)CCCC/C=C/C(C)C)ccc1O [capsaicin, reference compound], the “Reduction in serum triglycerides” value ([3]; 0.3 mg % capsaicin) is listed as 13%.

Reference: patent publication US6599522B2, “Triglyceride reducing agent” (priority 2000, dated 2003)
